What all share (format): functional, cell-based
The test system of test [1] is A549. Description: Antiproliferative activity against human A549 cells assessed as cell viability incubated for 48 hrs by MTT assay. The following applies: A549, 48 h. On the technique in general: Formazan colour is commonly taken as a measure of viable cells.
Test [2] concerns A549. Description: Induction of lipid […] accumulation in human A549 cells at 100 nM incubated for 24 hrs by C11-BODIPY-581/591 staining based flow cytometry analysis. A general note: A flow cytometer gives signals particle by particle.
The next test has as its system A2780. In words: Antiproliferative activity against human A2780 cells assessed as cell viability incubated for 48 hrs by MTT assay. The following applies: A2780, 48 h.
The test system of the next test is MCF7. Description: Antiproliferative activity against human MCF7 cells assessed as cell viability incubated for 48 hrs by MTT assay. The following applies: MCF7, 48 h.
In a further test the test system is HeLa. Description: Antiproliferative activity against human HeLa cells assessed as cell viability incubated for 48 hrs by MTT assay.
The test system of test [3] is A549. In words: Induction of apoptosis in human A549 cells assessed as cell viability pretreated with ferroptosis inhibitor desferoxamine for 24 hrs followed by incubation with compound at 100 nM and measured after 48 hrs by CCK-8 assay.
Another test has as its system HCT-8. In words: Antiproliferative activity against human HCT-8 cells assessed as cell viability incubated for 48 hrs by MTT assay. The following applies: HCT-8, 48 h.
Test [4] deals with A549. Description: Induction of apoptosis in human A549 cells assessed as cell viability pretreated with ferroptosis inhibitor ferrostatin-1 for 24 hrs followed by incubation with compound at 100 nM and measured after 48 hrs by CCK-8 assay.
Test [5] deals with A549. Description: Induction of apoptosis in human A549 cells assessed as cell viability pretreated with autophagy inhibitor 3-methyladenine for 24 hrs followed by incubation with compound at 100 nM and measured after 48 hrs by CCK-8 assay.
The test system of test [6] is A549. Description: Induction of apoptosis in human A549 cells assessed as cell viability pretreated with necroptosis inhibitor necrostatin-I for 24 hrs followed by incubation with compound at 100 nM and measured after 48 hrs by CCK-8 assay.
The subject of test [7] is A549. Description: Induction of apoptosis in human A549 cells assessed as cell viability pretreated with caspase inhibitor Z-VAD-FMK for 24 hrs followed by incubation with compound at 100 nM and measured after 48 hrs by CCK-8 assay.

SMILES strings stand for the structures. Calls of active or inactive are those of the source. No cut-off for these calls is given here.

Usually IC50 stands for the concentration at which inhibition is half-maximal.

With `C=C(c1ccc(OC)cc1NC(=O)CO)c1ccc(OC)c2c1OC(C)(C)C=C2`, the IC50 is 0.04 µM with A549 [1]; 0.04 µM with A2780; 0.1 µM in the test with MCF7; 0.04 µM in the test with HeLa; 0.13 µM in the test with HCT-8. Besides, the outcome in the test on A549 [2], in the test with A549 [3], in the test with A549 [4], in the test with A549 [5], in the test on A549 [6] and with A549 [7] was Active.

For the origin of these results see ChEMBL document CHEMBL5154799, “Discovery of a Novel Stilbene Derivative as a Microtubule Targeting Agent Capable of Inducing Cell Ferroptosis” (J Med Chem, 2022).
